In PubChem BioAssay (NCI):
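Compound exposure: 48 hours, 5 concentrations, 96-well plates. GI50 is the concentration that inhibits growth by half. TGI marks complete inhibition of growth.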

Key:
Test in all cases: inhibition of tumour cell growth, NCI panel, 48 h
[1] = test system: KM12 colon
[2] = test system: UACC-257 melanoma
[3] = test system: SW-620 colon
[4] = test system: OVCAR-8 ovarian
[5] = test system: CCRF-CEM leukemia
[6] = test system: SK-MEL-5 melanoma
[7] = test system: RPMI-8226 leukemia
[8] = test system: LOX IMVI melanoma
[9] = test system: HOP-92 NSCLC
[10] = test system: ACHN renal

| Structure (SMILES) | TGI [1] [µM] | TGI [2] [µM] | TGI [3] [µM] | TGI [4] [µM] | TGI [5] [µM] | TGI [6] [µM] | TGI [7] [µM] | TGI [8] [µM] | TGI [9] [µM] | TGI [10] [µM] | GI50 [1] [µM] | GI50 [2] [µM] | GI50 [3] [µM] | GI50 [4] [µM] | GI50 [5] [µM] | GI50 [6] [µM] | GI50 [7] [µM] | GI50 [8] [µM] | GI50 [9] [µM] | GI50 [10] [µM] |
| --- | --- | --- | --- | --- | --- | --- | --- | --- | --- | --- | --- | --- | --- | --- | --- | --- | --- | --- | --- | --- |
| C=C1C(=O)C23C(O)C1CC[C@H]2C12CCCC(C)(COC(C)=O)[C@H]1[C@H](O)[C@]3(O)OC2 (stereo not given in full) | 6.07 | 3.67 | 1.92 | 3.52 | 1.16 | 3.26 | 1.76 | 3.17 | 3.02 | 3.32 | – | – | – | – | – | – | – | – | – | – |
| OCc1ccc(N2CCOCC2)cc1Cl | > 100 | 24.1 | > 100 | > 100 | > 100 | > 100 | > 100 | > 100 | > 100 | > 100 | > 100 | 7.2 | > 100 | > 100 | > 100 | > 91.2 | > 84.4 | > 100 | 34.6 | > 100 |
| CC(C)Oc1ccc(C(=O)Cn2ccnc2)cc1-n1c(CN2CCN(C(=O)COc3ccc(Cl)cc3)CC2)nc2ccccc2c1=O | 36.2 | 39.6 | 50.9 | 53.2 | > 100 | 23.5 | 40.4 | 27.5 | 35 | 3.14 | 17 | 13.8 | 13.4 | 15.5 | 11 | 9.78 | 11.5 | 9.64 | 13.1 | 1.61 |
| Cn1c(=O)nc2n(-c3ccc(Cl)c(C(F)(F)F)c3)c3ccccc3nc-2c1=O | > 100 | 36.8 | 62 | 83.1 | > 100 | 26.9 | > 100 | > 100 | > 100 | > 100 | – | – | – | – | – | – | – | – | – | – |
| C[C@]12C/C(=C/O)C(=O)C(O)=C1CC[C@@H]1C2CC[C@@]2(C)C1CC[C@@H]2O (stereo not given in full) | 76.9 | 62 | > 100 | 75.6 | 47.5 | 42.9 | 64.8 | 30.9 | 46.4 | 72.2 | – | – | – | – | – | – | – | – | – | – |
| Nc1cc(-c2ccc(Cl)cc2)nn1-c1nnc(/C=C/c2ccco2)c(=O)[nH]1 | > 56.6 | 47.3 | > 100 | 33 | > 41 | 20.2 | > 48.1 | 37.8 | 16.7 | 17.7 | 4.05 | 6.55 | 5 | 4.09 | 2.26 | 3.37 | 1.54 | 4.82 | 2.6 | 3.09 |
| CCn1c(-c2nonc2N)nc2ccncc21 | > 25 | > 25 | > 25 | > 25 | > 25 | > 25 | > 25 | > 25 | > 25 | > 25 | > 25 | > 25 | > 25 | > 25 | > 25 | > 25 | > 25 | > 25 | > 25 | > 25 |
| CCCCCCC(C)CCCCCCCCCCC(=O)O (stereo not given) | > 100 | > 100 | > 100 | > 100 | > 100 | > 100 | > 100 | > 100 | > 100 | > 100 | – | – | – | – | – | – | – | – | – | – |
| COC(=O)c1ccc2c(c1)C(=O)c1c-2n(CCCN=[N+]=[N-])c(=O)c2cc([N+](=O)[O-])ccc12 | > 100 | > 100 | > 100 | > 100 | > 100 | > 100 | > 100 | > 100 | 53.3 | 28.7 | > 100 | > 100 | > 100 | > 100 | 42.2 | > 100 | 63.3 | 61.6 | 17.5 | 13 |
| CC1OC(c2ccc3c(c2O)C(=O)C2=C(C3=O)C3(O)C(=O)CC(C)(O)CC3(O)C=C2)CC(O)C1O (stereo not given) | > 60.6 | 29.3 | 21.7 | 51.5 | 5.27 | 22.9 | 48.1 | 30.9 | 30.7 | 26.5 | – | – | – | – | – | – | – | – | – | – |
| COc1ccc(C2Oc3c(c(O)cc4c3[C@H](c3ccc(O)cc3O)[C@H](O)C(c3ccc(O)c(O)c3)O4)C[C@@H]2O)cc1O (stereo not given in full) | > 100 | > 100 | > 100 | > 100 | > 100 | > 100 | > 100 | > 100 | > 100 | > 100 | – | – | – | – | – | – | – | – | – | – |
